This assay deals with POLRMT (Homo sapiens (Human), UniProt O00411). In words: homogeneous TR-FRET assay of mitochondrial transcription (inhibition of POLRMT). It counts as biochemical. The settings on record: 7.5 nM POLRMT, 15 nM TFB2M, 30 nM TFAM, 0.5 nM DNA template, 500 μM NTPs, 37° C. for 60 minutes. How it is done: The ability of some compounds of the present invention to inhibit POLRMT were determined in a homogeneous TR-FRET Assay using high-throughput screening in a 384-well plate format. […] Detection of the product is facilitated by hybridization of two DNA-oligonucleotide probes to specific and adjacent sequences within the RNA product sequence. Upon annealing of the probes, two fluorophores are coupled directly to an acceptor nucleotide probe (ATTO647, 5′), or introduced via a coupled streptavidin with a biotinylated donor nucleotide probe (Europium cryptate) that is brought into sufficient proximity to serve as a fluorescence-donor-acceptor pair. Thus, a FRET signal at 665 nm is generated upon excitation at 340 nm.
Chain of POLRMT (O00411 42-1230): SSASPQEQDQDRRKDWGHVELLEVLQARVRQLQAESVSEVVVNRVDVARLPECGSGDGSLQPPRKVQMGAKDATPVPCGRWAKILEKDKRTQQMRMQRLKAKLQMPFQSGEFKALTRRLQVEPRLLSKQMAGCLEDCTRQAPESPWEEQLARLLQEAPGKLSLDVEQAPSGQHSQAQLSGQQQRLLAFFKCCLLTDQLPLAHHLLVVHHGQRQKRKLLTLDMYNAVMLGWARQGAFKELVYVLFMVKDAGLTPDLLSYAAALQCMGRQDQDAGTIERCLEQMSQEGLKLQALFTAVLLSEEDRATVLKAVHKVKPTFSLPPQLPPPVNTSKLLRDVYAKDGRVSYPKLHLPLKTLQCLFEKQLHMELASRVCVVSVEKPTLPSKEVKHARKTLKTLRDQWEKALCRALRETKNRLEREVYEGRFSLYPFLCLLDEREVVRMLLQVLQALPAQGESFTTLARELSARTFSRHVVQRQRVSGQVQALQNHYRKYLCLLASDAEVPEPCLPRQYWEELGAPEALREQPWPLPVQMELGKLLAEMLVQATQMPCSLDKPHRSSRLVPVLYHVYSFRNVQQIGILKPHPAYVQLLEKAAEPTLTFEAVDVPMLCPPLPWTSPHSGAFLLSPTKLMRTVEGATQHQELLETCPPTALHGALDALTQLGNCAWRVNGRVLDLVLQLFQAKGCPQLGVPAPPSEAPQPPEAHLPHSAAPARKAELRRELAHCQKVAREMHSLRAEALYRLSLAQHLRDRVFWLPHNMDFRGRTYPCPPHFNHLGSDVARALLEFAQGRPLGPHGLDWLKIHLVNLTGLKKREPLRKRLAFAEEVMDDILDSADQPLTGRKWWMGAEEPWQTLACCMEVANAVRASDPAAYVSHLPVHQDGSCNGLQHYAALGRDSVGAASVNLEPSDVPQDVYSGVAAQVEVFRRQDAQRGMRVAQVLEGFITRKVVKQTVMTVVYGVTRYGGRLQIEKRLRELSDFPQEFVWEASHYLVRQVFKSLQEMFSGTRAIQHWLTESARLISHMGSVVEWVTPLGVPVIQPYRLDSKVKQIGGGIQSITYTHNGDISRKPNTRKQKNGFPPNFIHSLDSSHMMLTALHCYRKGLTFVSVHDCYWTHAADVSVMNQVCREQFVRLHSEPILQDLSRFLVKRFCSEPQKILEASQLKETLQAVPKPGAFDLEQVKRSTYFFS
The DNA template is restriction linearized proximal to the promotor 3′-end (pUC-LSP). […] No nucleotide triphosphate mix is added to negative control samples. Microplates with compounds to be tested in the assay are prepared from 10 mM compound stocks in 100% DMSO, equal amounts of DMSO without any compound are added to positive control and negative control samples.
During the incubation, a mix of the detection reagents is prepared in a buffer such that the enzymatic reaction is terminated due to chelating of Mg-ions and increased ionic strength, containing 50 mM Tris-HCl (pH 7.5), 700 mM NaCl, 20 mM EDTA, and 0.01% (w/v) Tween-20. Europium-streptavidin is pre-incubated with a 200-fold molar excess of a random sequence oligonucleotide to block unspecific binding of oligo, for two hours at ambient temperature in the dark. Afterwards, the blocked Europium-streptavidin is kept on ice until use.
At the end of the enzymatic reaction time, 5 μL detection oligo mix in the detection buffer is added, and assay plates are mixed and kept at ambient temperature for one hour, protected from light. The concentration of the Acceptor nucleotide oligo (e.g., ATTO647N-5′-[…]-3′) and Donor nucleotide oligo (e.g., bio-5′-[…](-bio)[…]-bio-3′) in each assay well is 1 nM, and 3 nM, respectively.
After incubation with oligo mix, 5 μL of pre-blocked Europium-streptavidin reagent is dispensed to each assay well, assay plates are again mixed and kept at ambient temperature for one hour, protected from light.
The generated signal is measured with BMG Pherastar microtiter plate reader with a TRF light unit, using excitation at 340 nm, an integration time of 200 μs, and a delay time of 100 μs, before detection at 620 nm and 665 nm. The ratio of donor- and acceptor-fluorescence is used as a measure of the generated transcript product (i.e. enzymatic activity).

`Cc1ccccc1-c1cc(=O)oc2cc(N[C@@H](C)CC(=O)O)ccc12` [Example 149, (S)-3-((2-oxo-4-(o-tolyl)-2H-chromen-7-yl)amino)butanoic acid]: the IC50 – broadly, the concentration that inhibits the measured activity by half – came out at 1000 nM.

In the case of `C[C@H](Cc1ccc2c(-c3ccc(F)cc3Cl)cc(=O)oc2c1)C(=O)N(C)C` [Example 21, (R)-3-(4-(2-chloro-4-fluorophenyl)-2-oxo-2H-chromen-7-yl)-N,N,2-trimethylpropanamide], the IC50 turned out to be 49000 nM.

In turn, `Cc1ccccc1-c1cc(=O)oc2cc(NCCC(=O)O)ccc12` [Example 145, 3-((2-oxo-4-(o-tolyl)-2H-chromen-7-yl)amino)propanoic acid] gave an IC50 of 4000 nM.

The compound `Cc1ccccc1-c1cc(=O)oc2cc(N(C)Cc3ccnn3C)ccc12` [Example 193, 7-(methyl((1-methyl-1H-pyrazol-5-yl)methyl)amino)-4-(o-tolyl)-2H-chromen-2-one] had an IC50 of 100 nM.

In turn, `COCC1CN(C(=O)c2ccc3c(-c4ccccc4C)cc(=O)oc3c2)C1` [Example 115, 7-(3-(methoxymethyl)azetidine-1-carbonyl)-4-(o-tolyl)-2H-chromen-2-one] returned an IC50 of 18000 nM.

Consider `C[C@H](C(=O)N1CCOCC1)N(C)c1ccc2c(-c3ccc(F)cc3Cl)cc(=O)oc2c1` [Example 55, (R)-4-(2-chloro-4-fluorophenyl)-7-(methyl(1-morpholino-1-oxopropan-2-yl)amino)-2H-chromen-2-one], for which 70 nM corresponded to half-maximal inhibition (IC50).

`Cc1ccccc1-c1cc(=O)oc2cc(CN(C)C(=O)N3CCC[C@@H](C(=O)O)C3)ccc12` [Example 222, (R)-1-(methyl((2-oxo-4-(o-tolyl)-2H-chromen-7-yl)methyl)carbamoyl)piperidine-3-carboxylic acid]: the IC50 is 2000 nM.

In turn, `Cc1ccccc1-c1cc(=O)oc2cc(C(=O)N(C)C3CCOCC3)ccc12` [Example 111, N-methyl-2-oxo-N-(tetrahydro-2H-pyran-4-yl)-4-(o-tolyl)-2H-chromene-7-carboxamide] registered an IC50 of 64000 nM.

`Cc1ccccc1-c1cc(=O)oc2cc(N(C)CC(=O)NCC(=O)O)ccc12` [Example 223, N-methyl-N-(2-oxo-4-(o-tolyl)-2H-chromen-7-yl)glycylglycine] displayed a half-inhibitory concentration (IC50) of 800 nM.

In turn, `Cc1ccccc1-c1cc(=O)oc2cc(C(C)N(C)C)ccc12` (stereo not drawn) [Example 78, 7-(1-(dimethylamino)ethyl)-4-(o-tolyl)-2H-chromen-2-one] returned an IC50 of 44000 nM.

On to `Cc1ccccc1-c1cc(=O)oc2cc(N(C)[C@@H](C)CC(=O)O)ccc12` [Example 228, (S)-3-(methyl(2-oxo-4-(o-tolyl)-2H-chromen-7-yl)amino)butanoic acid], for which the IC50 turned out to be 200 nM.

Turning to `Cc1ccccc1-c1cc(=O)oc2cc([C@H]3C[C@H]3C(=O)N(C)C)ccc12` (relative stereo) [Example 234, (cis)-N,N-dimethyl-2-(2-oxo-4-(o-tolyl)-2H-chromen-7-yl)cyclopropane-1-carboxamide], half-maximal inhibition (IC50) was put at 3000 nM.

Regarding `Cc1ccccc1-c1cc(=O)oc2cc(CN(C)C(=O)C3CCC(C(=O)O)CC3)ccc12` (stereo not drawn) [Example 229, 4-(methyl((2-oxo-4-(o-tolyl)-2H-chromen-7-yl)methyl)carbamoyl)cyclohexane-1-carboxylic acid], the IC50 came out at 100 nM.

On to `Cc1ccccc1-c1cc(=O)oc2cc(N(C)CCC(=O)O)ccc12` [Example 144, 3-(methyl(2-oxo-4-(o-tolyl)-2H-chromen-7-yl)amino)propanoic acid], for which the IC50 was 100 nM.

For `COc1ccccc1-c1cc(=O)oc2cc(NC(=O)C(C)C)ccc12` [Example 30, N-(4-(2-methoxyphenyl)-2-oxo-2H-chromen-7-yl) isobutyramide], the half-inhibitory concentration (IC50) is more than 100000 nM.

As for `CNC(=O)C(C)Cc1ccc2c(-c3ccccc3C)cc(=O)oc2c1` (single isomer, unassigned) [Example 67, N,2-dimethyl-3-(2-oxo-4-(o-tolyl)-2H-chromen-7-yl)propanamide], the IC50 came out at 6000 nM.

For the compound `C[C@@H](Cc1ccc2c(-c3ccc(F)cc3Cl)cc(=O)oc2c1)C(=O)N1CCCCC1` [Example 18, (S)-4-(2-chloro-4-fluorophenyl)-7-(2-methyl-3-oxo-3-(piperidin-1-yl)propyl)-2H-chromen-2-one], the IC50 stood at 200 nM.

`CCOC(=O)CN(C)c1ccc2c(-c3ccccc3C)cc(=O)oc2c1` [Example 142, ethyl N-methyl-N-(2-oxo-4-(o-tolyl)-2H-chromen-7-yl)glycinate] came in with a 50% inhibitory concentration (IC50) of 20 nM.

Turning to `Cc1ccccc1-c1cc(=O)oc2cc(NC(C)(C)C(N)=O)ccc12` [Example 210, 2-methyl-2-((2-oxo-4-(o-tolyl)-2H-chromen-7-yl)amino)propanamide], the IC50 was found to be 3000 nM.

For `CCOC(C)c1ccc2c(-c3ccc(F)cc3Cl)cc(=O)oc2c1` (single isomer, unassigned) [Example 42, 4-(2-chloro-4-fluorophenyl)-7-(1-ethoxyethyl)-2H-chromen-2-one], the IC50 came out at 6000 nM.

`Cc1ccccc1-c1cc(=O)oc2cc(N(C)[C@H](C)C(=O)N3CCC[C@H](C(=O)O)C3)ccc12` [Example 75, (S)-1-(N-methyl-N-(2-oxo-4-(o-tolyl)-2H-chromen-7-yl)-D-alanyl)piperidine-3-carboxylic acid]: the IC50 worked out at 30 nM.

`Cc1ccccc1-c1cc(=O)oc2cc(N(C)CC(N)=O)ccc12` [Example 106, 2-(methyl(2-oxo-4-(o-tolyl)-2H-chromen-7-yl)amino)acetamide] came in with an IC50 of 200 nM.

In the case of `Cc1ccccc1-c1cc(=O)oc2cc(CC(C)C(=O)N3CCC[C@H](C(N)=O)C3)ccc12` (single isomer, unassigned) [Example 90], half-maximal inhibition (IC50) required 8000 nM.

For the compound `CCOC(=O)[C@H]1CCCN(C(=O)N(C)Cc2ccc3c(-c4ccc(F)cc4Cl)cc(=O)oc3c2)C1` [Example 07, ethyl (S)-1-(((4-(2-chloro-4-fluorophenyl)-2-oxo-2H-chromen-7-yl)methyl)(methyl)carbamoyl)piperidine-3-carboxylate], the IC50 worked out at 7000 nM.

`CCOC(C)c1ccc2c(-c3ccc(F)cc3Cl)cc(=O)oc2c1` (single isomer, unassigned) [Example 41, 4-(2-chloro-4-fluorophenyl)-7-(1-ethoxyethyl)-2H-chromen-2-one] showed a half-maximal inhibitory concentration (IC50) of 1000 nM.

As for `Cc1ccccc1-c1cc(=O)oc2cc(C(=O)N3CC(C)(CO)C3)ccc12` [Example 124, 7-(3-(hydroxymethyl)-3-methylazetidine-1-carbonyl)-4-(o-tolyl)-2H-chromen-2-one], inhibition was half-maximal at 3000 nM (IC50).

The compound `CCOC(=O)[C@H]1CCCN(C(=O)C(C)Cc2ccc3c(-c4ccccc4C)cc(=O)oc3c2)C1` (single isomer, unassigned) [Example 87] showed an IC50 of 9000 nM.

Take `Cc1ccccc1-c1cc(=O)oc2cc(CC(=O)O)ccc12` [Example 233, 2-(2-oxo-4-(o-tolyl)-2H-chromen-7-yl) acetic acid]: the IC50 is 5000 nM.

Regarding `Cc1ccccc1-c1cc(=O)oc2cc(N[C@H](C)C(=O)N3CCC[C@H](C(=O)O)C3)ccc12` [Example 80, (S)-1-((2-oxo-4-(o-tolyl)-2H-chromen-7-yl)-D-alanyl)piperidine-3-carboxylic acid], 100 nM corresponded to half-maximal inhibition (IC50).

With `Cc1ccccc1-c1cc(=O)oc2cc(CO)ccc12` [Example 09, 7-(hydroxymethyl)-4-(o-tolyl)-2H-chromen-2-one], half-maximal inhibition (IC50) was put at 10000 nM.

(Values after patent US20250326732A1 (Pretzel Therapeutics, Inc., priority 2021, published 2025).)
